From ChEMBL document CHEMBL1201862, “PubChem BioAssay data set” (2004)
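Interpolation was linear, between the two tested concentrations surrounding the appropriate level; five concentrations were tested over 48 hours in 96-well plates. GI50 marks 50% less growth.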 Activity calls are given as the source filed them. Cut-off read from the data, not from the text of the source: active = GI50 up to about 1.1 µM and inactive = higher.

Columns and labels:
Assay in all cases: inhibition of tumour cell growth, NCI panel, 48 h
MDA-MB-435 = test system: MDA-MB-435
A498 = test system: A498
NCI-H460 = test system: NCI-H460
SF-295 = test system: SF-295
MCF7 = test system: MCF7
NCI-H226 = test system: NCI-H226
OVCAR-8 = test system: OVCAR-8
SK-MEL-2 = test system: SK-MEL-2
SF-268 = test system: SF-268
UACC-62 = test system: UACC-62
OVCAR-4 = test system: OVCAR-4
K562 = test system: K562
LOX IMVI = test system: LOX IMVI
SNB-19 = test system: SNB-19
CCRF-CEM = test system: CCRF-CEM
HCT-15 = test system: HCT-15
786-0 = test system: 786-0
NCI-H522 = test system: NCI-H522
COLO 205 = test system: COLO 205
SK-MEL-5 = test system: SK-MEL-5
A549 = test system: A549
UACC-257 = test system: UACC-257
SN12C = test system: SN12C
UO-31 = test system: UO-31
HT-29 = test system: HT-29
RXF 393 = test system: RXF 393
U-251 = test system: U-251
HOP-62 = test system: HOP-62
Malme-3M = test system: Malme-3M
CAKI-1 = test system: CAKI-1
HL-60 = test system: HL-60
BT-549 = test system: BT-549
DU-145 = test system: DU-145
MDA-MB-231 = test system: MDA-MB-231
NCI-H23 = test system: NCI-H23
MDA-N = test system: MDA-N
SK-MEL-28 = test system: SK-MEL-28
ACHN = test system: ACHN
MOLT-4 = test system: MOLT-4
EKVX = test system: EKVX
T47D = test system: T47D
HCC 2998 = test system: HCC 2998
OVCAR-3 = test system: OVCAR-3
Hs-578T = test system: Hs-578T
IGROV-1 = test system: IGROV-1
HCT-116 = test system: HCT-116
KM12 = test system: KM12
NCI/ADR-RES = test system: NCI/ADR-RES
OVCAR-5 = test system: OVCAR-5
M14 = test system: M14
SK-OV-3 = test system: SK-OV-3
SF-539 = test system: SF-539
TK-10 = test system: TK-10
HOP-92 = test system: HOP-92
SNB-75 = test system: SNB-75
SW-620 = test system: SW-620

**Q.** Which GI50 (MDA-MB-435) does the source give for `CCOP(=O)(OCC)C(C)(CC)NC` (stereo unspecified) here?
**A.** > 100 µM (inactive)

**Q.** What about the GI50 (A498) of the same molecule?
**A.** > 100 µM (inactive)

**Q.** And the GI50 (NCI-H460)?
**A.** > 100 µM (inactive)

**Q.** What about the GI50 (SF-295) of the same molecule?
**A.** > 100 µM (inactive)

**Q.** And the GI50 (MCF7)?
**A.** > 100 µM (inactive)

**Q.** What about the GI50 (NCI-H226) of the same molecule?
**A.** > 100 µM (inactive)

**Q.** And the GI50 (OVCAR-8)?
**A.** > 100 µM (inactive)

**Q.** And the GI50 (SK-MEL-2)?
**A.** > 100 µM (inactive)

**Q.** What about the GI50 (SF-268) of the same molecule?
**A.** > 100 µM (inactive)

**Q.** And the GI50 (UACC-62)?
**A.** > 100 µM (inactive)

**Q.** And the GI50 (OVCAR-4)?
**A.** > 100 µM (inactive)

**Q.** What about the GI50 (K562) of the same molecule?
**A.** > 100 µM (inactive)

**Q.** And the GI50 (LOX IMVI)?
**A.** > 100 µM (inactive)

**Q.** And the GI50 (SNB-19)?
**A.** > 100 µM (inactive)

**Q.** And the GI50 (CCRF-CEM)?
**A.** 0.935 µM (active)

**Q.** What about the GI50 (HCT-15) of the same molecule?
**A.** > 100 µM

**Q.** What about the GI50 (786-0) of the same molecule?
**A.** > 100 µM (inactive)

**Q.** What about the GI50 (NCI-H522) of the same molecule?
**A.** > 100 µM (inactive)

**Q.** What about the GI50 (COLO 205) of the same molecule?
**A.** > 100 µM (inactive)

**Q.** And the GI50 (SK-MEL-5)?
**A.** > 100 µM (inactive)

**Q.** And the GI50 (A549)?
**A.** > 100 µM (inactive)

**Q.** And the GI50 (UACC-257)?
**A.** > 100 µM (inactive)

**Q.** And the GI50 (SN12C)?
**A.** > 100 µM (inactive)

**Q.** What about the GI50 (UO-31) of the same molecule?
**A.** > 100 µM (inactive)

**Q.** And the GI50 (HT-29)?
**A.** > 100 µM (inactive)

**Q.** And the GI50 (RXF 393)?
**A.** > 100 µM (inactive)

**Q.** What about the GI50 (U-251) of the same molecule?
**A.** > 100 µM (inactive)

**Q.** What about the GI50 (HOP-62) of the same molecule?
**A.** > 100 µM (inactive)

**Q.** What about the GI50 (Malme-3M) of the same molecule?
**A.** > 100 µM (inactive)

**Q.** And the GI50 (CAKI-1)?
**A.** > 100 µM (inactive)

**Q.** What about the GI50 (HL-60) of the same molecule?
**A.** > 100 µM (inactive)

**Q.** What about the GI50 (BT-549) of the same molecule?
**A.** > 100 µM (inactive)

**Q.** And the GI50 (DU-145)?
**A.** > 100 µM (inactive)

**Q.** And the GI50 (MDA-MB-231)?
**A.** > 100 µM (inactive)

**Q.** What about the GI50 (NCI-H23) of the same molecule?
**A.** > 100 µM (inactive)

**Q.** What about the GI50 (MDA-N) of the same molecule?
**A.** > 100 µM (inactive)

**Q.** And the GI50 (SK-MEL-28)?
**A.** > 100 µM (inactive)

**Q.** What about the GI50 (ACHN) of the same molecule?
**A.** > 100 µM (inactive)

**Q.** What about the GI50 (MOLT-4) of the same molecule?
**A.** > 100 µM (inactive)

**Q.** And the GI50 (EKVX)?
**A.** > 100 µM (inactive)

**Q.** And the GI50 (T47D)?
**A.** > 100 µM (inactive)

**Q.** What about the GI50 (HCC 2998) of the same molecule?
**A.** > 100 µM (inactive)

**Q.** And the GI50 (OVCAR-3)?
**A.** > 100 µM (inactive)

**Q.** What about the GI50 (Hs-578T) of the same molecule?
**A.** > 100 µM (inactive)

**Q.** What about the GI50 (IGROV-1) of the same molecule?
**A.** > 100 µM (inactive)

**Q.** And the GI50 (HCT-116)?
**A.** > 100 µM (inactive)

**Q.** And the GI50 (KM12)?
**A.** > 100 µM (inactive)

**Q.** And the GI50 (NCI/ADR-RES)?
**A.** > 100 µM (inactive)

**Q.** What about the GI50 (OVCAR-5) of the same molecule?
**A.** > 100 µM (inactive)

**Q.** What about the GI50 (M14) of the same molecule?
**A.** > 100 µM (inactive)

**Q.** And the GI50 (SK-OV-3)?
**A.** > 100 µM (inactive)

**Q.** What about the GI50 (SF-539) of the same molecule?
**A.** > 100 µM (inactive)

**Q.** And the GI50 (TK-10)?
**A.** > 100 µM (inactive)

**Q.** What about the GI50 (HOP-92) of the same molecule?
**A.** > 100 µM (inactive)

**Q.** What about the GI50 (SNB-75) of the same molecule?
**A.** > 100 µM (inactive)

**Q.** What about the GI50 (SW-620) of the same molecule?
**A.** > 100 µM (inactive)
